From US9409952B2, “Peptide-compound cyclization method” (Chugai Seiyaku Kabushiki Kaisha, priority 2011, dated 2016)
Starred links: 1 amine or outer side, 2 acyl side, 3 side chain; linkers in the order of their positions; H or OH if unused. Positions of bridges follow the written chain, without caps; N, C: chain ends. Non-standard residues stand in square brackets, D forms with d. Residues, ends and D or L forms follow the SMILES beside them. *: point of attachment. NMeF = CN[C@@H](Cc1ccccc1)C(=O)O; NMeGABA = CN(CCCC(=O)[*:2])[*:1]; NMeβAla = CN(CCC(=O)[*:2])[*:1]; NMeL = CN[C@@H](CC(C)C)C(=O)O; NMeV = CN[C@H](C(=O)O)C(C)C; NMeA = CN[C@@H](C)C(=O)O; Piperidide = C1CCN(*)CC1; dNMeA = CN[C@H](C)C(=O)O; Sar = CNCC(=O)O

Tests used:
[1] = PAMPA (parallel artificial membrane permeability assay); format: in vitro ADME; conditions: PAMPA; membrane permeation rate (Pe); 50 mM MOPSO buffer pH 6.5 with 5.0% glycocholic acid, 37° C., 18 hours; read-out: iPAMPA Pe
Procedure, shortened: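 Artificial membrane was 10% (w/v) egg lecithin plus 0.5% (w/v) cholesterol in dodecane on a PVDF filter. A 10 mM DMSO stock was added at 0.5% (v/v) to donor buffer (50 mM MOPSO, pH 6.5, 5.0% glycocholic acid). After 18 h at 37 °C, LC/MS or LC/UV gave donor and acceptor levels for Pe.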

[2] = Metabolic stability in human hepatic microsome; format: in vitro ADME; conditions: microsomes, pH 7.4; human hepatic microsome, NADPH(+); read-out: CL NADPH(+)

CC(C)C[C@@H]1NC(=O)[C@H](C(C)C)NC(=O)[C@H](Cc2ccccc2)NC(=O)CCN(C)C(=O)C[C@@H](C(=O)N2CCCCC2)NC(=O)[C@H](CC(C)C)N(C)C(=O)[C@H](CC(C)C)NC(=O)[C@H](C(C)C)N(C)C(=O)[C@H](CC(C)C)NC(=O)[C@H]([C@@H](C)O)NC(=O)CN(C)C1=O [DP-472] ([NMeβAla]FVL[Sar]TL[NMeV]L[NMeL]D-Piperidide; lactam N-11)
Papp at 18 hours, 50 µM [1]: 24 ×10⁻⁶ cm/s | microsomal CLint at 1 uM [2]: 52 µL/min/mg

CC(C)C[C@H]1C(=O)N(C)[C@@H](C(C)C)C(=O)N(C)[C@@H](C)C(=O)N[C@H](C(=O)N2CCCCC2)CC(=O)N(C)CCC(=O)N[C@@H]([C@@H](C)O)C(=O)N[C@@H](C)C(=O)N(C)[C@@H](C)C(=O)N(C)[C@@H](Cc2ccccc2)C(=O)N(C)[C@@H](CC(C)C)C(=O)N[C@@H](Cc2ccccc2)C(=O)N1C [DP-473] ([NMeβAla]TA[NMeA][NMeF][NMeL]F[NMeL][NMeV][NMeA]D-Piperidide; lactam N-11)
Papp at 18 hours, 50 µM [1]: 14 ×10⁻⁶ cm/s | microsomal CLint at 1 uM [2]: 82 µL/min/mg

CC(C)C[C@H]1C(=O)N[C@@H](C)C(=O)N(C)[C@@H](Cc2ccccc2)C(=O)N(C)[C@@H](C(C)C)C(=O)N[C@@H](Cc2ccccc2)C(=O)N(C)[C@@H](C)C(=O)N(C)[C@@H](C)C(=O)N[C@H](C(=O)N2CCCCC2)CC(=O)N(C)[C@H](C)C(=O)N[C@@H]([C@@H](C)O)C(=O)N(C)[C@@H](C)C(=O)N1C [DP-474] ([dNMeA]T[NMeA][NMeL]A[NMeF][NMeV]F[NMeA][NMeA]D-Piperidide; lactam N-11)
Papp at 18 hours, 50 µM [1]: 13 ×10⁻⁶ cm/s | microsomal CLint at 1 uM [2]: 129 µL/min/mg

CC[C@H](C)[C@@H]1NC(=O)[C@H](CC(C)C)NC(=O)[C@@H](C)N(C)C(=O)C[C@@H](C(=O)N2CCCCC2)NC(=O)[C@H](C(C)C)N(C)C(=O)[C@H](CC(C)C)NC(=O)[C@H](Cc2ccccc2)NC(=O)[C@H]([C@@H](C)O)NC(=O)[C@H](CC(C)C)NC(=O)CN(C)C(=O)[C@H](C)NC1=O [DP-475] ([dNMeA]LIA[Sar]LTFL[NMeV]D-Piperidide; lactam N-11)
Papp at 18 hours, 50 µM [1]: 16 ×10⁻⁶ cm/s | microsomal CLint at 1 uM [2]: 35 µL/min/mg

CC(C)C[C@H]1C(=O)N(C)[C@@H](C)C(=O)N[C@@H]([C@@H](C)O)C(=O)N(C)[C@@H](C)C(=O)N(C)[C@@H](CC(C)C)C(=O)N(C)[C@@H](Cc2ccccc2)C(=O)N[C@H](C(=O)N2CCCCC2)CC(=O)N(C)[C@H](C)C(=O)N(C)[C@@H](C)C(=O)N[C@@H](C)C(=O)N(C)[C@@H](C)C(=O)N1C [DP-476] ([dNMeA][NMeA]A[NMeA][NMeL][NMeA]T[NMeA][NMeL][NMeF]D-Piperidide; lactam N-11)
Papp at 18 hours, 50 µM [1]: 2.8 ×10⁻⁶ cm/s | microsomal CLint at 1 uM [2]: 10 µL/min/mg

CC[C@H](C)[C@@H]1NC(=O)[C@H](Cc2ccccc2)N(C)C(=O)CN(C)C(=O)[C@H]([C@@H](C)O)NC(=O)[C@H](CC(C)C)NC(=O)[C@H](CC(C)C)N(C)C(=O)[C@H](C)N(C)C(=O)CCCN(C)C(=O)C[C@@H](C(=O)N2CCCCC2)NC(=O)[C@H](Cc2ccccc2)N(C)C(=O)[C@H](C(C)C)N(C)C1=O [DP-477] ([NMeGABA][NMeA][NMeL]LT[Sar][NMeF]I[NMeV][NMeF]D-Piperidide; lactam N-11)
Papp at 18 hours, 50 µM [1]: 29 ×10⁻⁶ cm/s | microsomal CLint at 1 uM [2]: 30 µL/min/mg

CC[C@H](C)[C@@H]1NC(=O)[C@H](CC(C)C)NC(=O)[C@H](C(C)C)NC(=O)[C@H](CC(C)C)N(C)C(=O)[C@H](CC(C)C)NC(=O)[C@H](Cc2ccccc2)NC(=O)[C@H]([C@@H](C)O)NC(=O)[C@H](C)N(C)C(=O)[C@H](CC(C)C)NC(=O)[C@H](C)N(C)C(=O)C[C@@H](C(=O)N2CCCCC2)NC1=O [DP-478] ([NMeA]L[NMeA]TFL[NMeL]VLID-Piperidide; lactam N-11)
Papp at 18 hours, 50 µM [1]: 18 ×10⁻⁶ cm/s | microsomal CLint at 1 uM [2]: 50 µL/min/mg

CC(C)C[C@@H]1NC(=O)[C@H](CC(C)C)N(C)C(=O)[C@H](C(C)C)N(C)C(=O)[C@H](C)NC(=O)CN(C)C(=O)[C@H](Cc2ccccc2)NC(=O)[C@H]([C@@H](C)O)NC(=O)[C@H](CC(C)C)N(C)C(=O)[C@H](C)N(C)C(=O)C[C@@H](C(=O)N2CCCCC2)NC(=O)[C@H](CC(C)C)N(C)C1=O [DP-479] ([NMeA][NMeL]TF[Sar]A[NMeV][NMeL]L[NMeL]D-Piperidide; lactam N-11)
Papp at 18 hours, 50 µM [1]: 46 ×10⁻⁶ cm/s | microsomal CLint at 1 uM [2]: 183 µL/min/mg

CC(C)C[C@H]1C(=O)N(C)[C@@H](C)C(=O)N[C@H](C(=O)N2CCCCC2)CC(=O)N(C)[C@@H](C)C(=O)N(C)[C@@H](C)C(=O)N[C@@H](C)C(=O)N(C)[C@@H](C)C(=O)N(C)[C@@H](CC(C)C)C(=O)N(C)[C@@H](Cc2ccccc2)C(=O)N[C@@H]([C@@H](C)O)C(=O)N(C)[C@@H](C)C(=O)N1C [DP-480] ([NMeA][NMeA]A[NMeA][NMeL][NMeF]T[NMeA][NMeL][NMeA]D-Piperidide; lactam N-11)
Papp at 18 hours, 50 µM [1]: 6.6 ×10⁻⁶ cm/s | microsomal CLint at 1 uM [2]: 15 µL/min/mg

CC[C@H](C)[C@@H]1NC(=O)[C@H](C)N(C)C(=O)C[C@@H](C(=O)N2CCCCC2)NC(=O)[C@H](Cc2ccccc2)NC(=O)[C@H](CC(C)C)N(C)C(=O)[C@H](C(C)C)N(C)C(=O)[C@H](C)N(C)C(=O)[C@H]([C@@H](C)O)NC(=O)[C@H](Cc2ccccc2)N(C)C(=O)[C@H](C)N(C)C(=O)[C@H](CC(C)C)N(C)C1=O [DP-481] ([NMeA]I[NMeL][NMeA][NMeF]T[NMeA][NMeV][NMeL]FD-Piperidide; lactam N-11)
Papp at 18 hours, 50 µM [1]: 31 ×10⁻⁶ cm/s | microsomal CLint at 1 uM [2]: 82 µL/min/mg

CC(C)C[C@H]1C(=O)N(C)[C@@H](C)C(=O)N(C)[C@@H](Cc2ccccc2)C(=O)N[C@@H]([C@@H](C)O)C(=O)N(C)CC(=O)N(C)[C@@H](Cc2ccccc2)C(=O)N(C)[C@@H](CC(C)C)C(=O)N[C@@H](C)C(=O)N[C@H](C(=O)N2CCCCC2)CC(=O)N(C)[C@@H](C)C(=O)N(C)[C@@H](C)C(=O)N1C [DP-482] ([NMeA][NMeA][NMeL][NMeA][NMeF]T[Sar][NMeF][NMeL]AD-Piperidide; lactam N-11)
Papp at 18 hours, 50 µM [1]: 3.7 ×10⁻⁶ cm/s | microsomal CLint at 1 uM [2]: 11 µL/min/mg

CC[C@H](C)[C@@H]1NC(=O)[C@H](C)NC(=O)C[C@@H](C(=O)N(C)[C@@H](Cc2ccccc2)C(=O)N[C@@H](C)C(=O)N2CCCCC2)NC(=O)[C@H](Cc2ccccc2)NC(=O)[C@H](C)N(C)C(=O)[C@H](C(C)C)N(C)C(=O)CN(C)C(=O)[C@H]([C@@H](C)O)NC(=O)[C@H](Cc2ccccc2)N(C)C(=O)[C@H](CC(C)C)N(C)C(=O)[C@H](CC(C)C)N(C)C1=O [DP-483] (AI[NMeL][NMeL][NMeF]T[Sar][NMeV][NMeA]FD[NMeF]A-Piperidide; lactam N-11)
Papp at 18 hours, 50 µM [1]: 18 ×10⁻⁶ cm/s | microsomal CLint at 1 uM [2]: 23 µL/min/mg

CC(C)C[C@@H]1NC(=O)[C@H](Cc2ccccc2)N(C)C(=O)[C@H](C(C)C)N(C)C(=O)CN(C)C(=O)[C@H]([C@@H](C)O)NC(=O)[C@H](Cc2ccccc2)N(C)C(=O)[C@H](CC(C)C)N(C)C(=O)[C@H](CC(C)C)N(C)C(=O)[C@H](C)NC(=O)[C@@H](C(C)C)NC(=O)C[C@@H](C(=O)N(C)[C@@H](Cc2ccccc2)C(=O)N[C@@H](C)C(=O)N2CCCCC2)NC1=O [DP-484] ([dV]A[NMeL][NMeL][NMeF]T[Sar][NMeV][NMeF]LD[NMeF]A-Piperidide; lactam N-11)
Papp at 18 hours, 50 µM [1]: 13 ×10⁻⁶ cm/s | microsomal CLint at 1 uM [2]: 29 µL/min/mg

CC[C@H](C)[C@@H]1NC(=O)[C@H](C(C)C)N(C)C(=O)[C@H](C)N(C)C(=O)[C@H]([C@@H](C)O)NC(=O)[C@@H](C)N(C)C(=O)C[C@@H](C(=O)N2CCCCC2)NC(=O)[C@H](C)NC(=O)[C@H](Cc2ccccc2)N(C)C(=O)CN(C)C(=O)[C@H](CC(C)C)N(C)C1=O [DP-485] ([dNMeA]T[NMeA][NMeV]I[NMeL][Sar][NMeF]AD-Piperidide; lactam N-10)
Papp at 18 hours, 50 µM [1]: 5.9 ×10⁻⁶ cm/s | microsomal CLint at 1 uM [2]: 45 µL/min/mg

CC[C@H](C)[C@@H]1NC(=O)[C@H](C)N(C)C(=O)[C@H](CC(C)C)N(C)C(=O)CCCN(C)C(=O)C[C@@H](C(=O)N2CCCCC2)NC(=O)[C@H](C)N(C)C(=O)[C@H](Cc2ccccc2)N(C)C(=O)[C@H]([C@@H](C)O)NC(=O)[C@H](Cc2ccccc2)N(C)C(=O)[C@H](CC(C)C)N(C)C1=O [DP-487] ([NMeGABA][NMeL][NMeA]I[NMeL][NMeF]T[NMeF][NMeA]D-Piperidide; lactam N-10)
Papp at 18 hours, 50 µM [1]: 24 ×10⁻⁶ cm/s | microsomal CLint at 1 uM [2]: 386 µL/min/mg

CC(C)C[C@H]1C(=O)N(C)[C@@H](C)C(=O)N(C)[C@@H](CC(C)C)C(=O)N[C@H](C(=O)N2CCCCC2)CC(=O)N(C)[C@@H](C)C(=O)N(C)[C@@H](Cc2ccccc2)C(=O)N[C@@H]([C@@H](C)O)C(=O)N(C)[C@@H](C)C(=O)N(C)[C@@H](CC(C)C)C(=O)NCC(=O)N1C [DP-489] ([NMeA][NMeF]T[NMeA][NMeL]G[NMeL][NMeA][NMeL]D-Piperidide; lactam N-10)
Papp at 18 hours, 50 µM [1]: 24 ×10⁻⁶ cm/s | microsomal CLint at 1 uM [2]: 59 µL/min/mg

CC[C@H](C)[C@@H]1NC(=O)[C@H](CC(C)C)N(C)C(=O)[C@H](C)N(C)C(=O)[C@H]([C@@H](C)O)NC(=O)[C@H](C)N(C)C(=O)[C@H](C(C)C)N(C)C(=O)[C@H](Cc2ccccc2)NC(=O)CCN(C)C(=O)C[C@@H](C(=O)N(C)[C@@H](Cc2ccccc2)C(=O)N[C@@H](C)C(=O)N2CCCCC2)NC(=O)[C@H](C)N(C)C1=O [DP-490] ([NMeβAla]F[NMeV][NMeA]T[NMeA][NMeL]I[NMeA]D[NMeF]A-Piperidide; lactam N-10)
Papp at 18 hours, 50 µM [1]: 11 ×10⁻⁶ cm/s | microsomal CLint at 1 uM [2]: 27 µL/min/mg

CC[C@H](C)[C@@H]1NC(=O)[C@@H](C)NC(=O)C[C@@H](C(=O)N(C)[C@@H](Cc2ccccc2)C(=O)N[C@@H](C)C(=O)N2CCCCC2)NC(=O)[C@H](Cc2ccccc2)N(C)C(=O)[C@H](C)NC(=O)[C@H](CC(C)C)N(C)C(=O)[C@H](C)N(C)C(=O)[C@H]([C@@H](C)O)NC(=O)[C@H](C(C)C)N(C)C(=O)[C@H](C)N(C)C1=O [DP-491] ([dA]I[NMeA][NMeV]T[NMeA][NMeL]A[NMeF]D[NMeF]A-Piperidide; lactam N-10)
Papp at 18 hours, 50 µM [1]: 18 ×10⁻⁶ cm/s | microsomal CLint at 1 uM [2]: 39 µL/min/mg
